# In patent US9073965B2, “Adiponectin receptor agonists and methods of use” (TEMPLE UNIVERSITY—OF THE COMMONWEALTH SYSTEM OF HIGHER …, priority 2011, dated 2015):
# Non-standard residues stand in square brackets, D forms with d. Residues, ends and D or L forms follow the SMILES beside them. Nva = CCC[C@H](N)C(=O)O; βAla = NCCC(=O)O
# Legend:
# [1] = tested on: AMPK; test: Signaling analysis by Western blot: AMPK phosphorylation; assay type: cell-based
# Experimental: (§1) The analysis was done using MCF-7 and MDA-MB-231 breast cancer cells and in LN18 glioblastoma cells. The cells at 70-80% confluence were shifted to SFM for 24 h, then SFM was removed, the cultures were washed 2× with PBS, placed in normal growth medium for 1 h, and then treated with ADP 355-NH2 at 100 nM (MCF-7 cells) or 10 μM (MDA-MB-231 and LN 18 cells) concentration for 0-60 min, while gAd at 50 ng/mL was applied for 60 min only. Untreated cells were used as negative control. After the treatment, cells were lysed as previously described and 100 μg of proteins were analyzed by Western blot for the expression of phosphorylated (p) and total forms of several signaling molecules. Bartella V, et al. Cancer Res 2008, 68(12):4919-4927. Garofalo C, et al. Clin Cancer Res 2004, 10(10):6466-6475. The following primary antibodies (Abs) from Cell Signaling (Danvers, Mass.) were used: 1) pAMPK alpha (T172) D79.5E rabbit mAb 1: 750; 2) total AMPK alpha antibody rabbit mAb 1:1000 in; 3) p44/42 MAPK (T202/Y204) rabbit mAb 1:1000; 4) total 44/42 MAP kinase antibody rabbit mAb 1:1000; 5) pStat3 (Y705) D3A7 rabbit mAb 1: 500; 6) total Stat3 79D7 rabbit mAb 1:2000; 7) pAkt (Ser 473) rabbit mAb 1:1000; 8) total Akt rabbit mAb 1:1000; 9) AdipoR1 rabbit purified anti-serum 1:500 (Phoenix Secretomics). Protein loading was verified by evaluating the expression of either a constitutive enzyme glyceraldehyde-3-phosphate dehydrogenase (GAPDH) using 6C51 mAbs 1:1000 (Santa Cruz Biotechnology, CA, USA) or alpha-actin using the actin I-19 goat polyclonal Ab (Santa Cruz) 1: 200. The following secondary Abs (Santa Cruz) were used 1) donkey anti-goat IgG-HRP; 2) goat anti-mouse IgG-HRP; 3) goat anti-rabbit IgG-HRP, all applied at 1:1000 dilution.
# [2] = tested on: Akt; test: Signaling analysis by Western blot: Akt; assay type: cell-based
# Experimental: as §1
# [3] = Peptide stability in whole mouse blood; assay type: in vitro ADME; conditions: after 30 min at 37° C., mass spectroscopy
# Experimental: (§2) Sixty μg of ADP 355-NH2 were dissolved in 100 μL water, and 10 μL aliquots were mixed with 100 μL of freshly drawn mouse blood. After 30 min of incubation at 37° C. the cells were centrifuged at 10,000×g. Fifty μL serum was mixed with 50 μL phosphate buffered saline pH 6.8 (PBS), and the serum proteins were precipitated by addition of 45 μL aqueous 15% trichloroacetic acid (TCA) for 10 min at 4° C. After centrifugation at 12,000×g the supernatant was neutralized with 0.1 M aqueous sodium hydroxide and 0.5 μL of this solution was mixed with 0.5 μL α-cyano-4-hydroxycinnamic acid (4 mg/mL in 60% aqueous acetonitrile containing 0.1% TFA) as matrix on a sample plate. Analysis was performed on a MALDI time-of-flight tandem mass spectrometer (MALDITOF/TOF-MS, 4700 proteomic analyzer, Applied Biosystems, Weiterstadt, Germany). Additionally, the neutralized supernatant was loaded on a Jupiter C18 RP-HPLC column (4.6 mm internal diameter, 150 mm length, 5 μm particle size, 30 nm pore size; Phenomenex) that had previously been calibrated with known amounts of peptide ADP 355-NH2 dissolved in PBS. Absorbance was measured at 214 nm. Peptide ADP 355-NH2 was incubated at 37° C. with 25% aqueous mouse serum at a final concentration of 150 μg/mL. After 0, 15, 30, 60, 120, and 240 min 95 μL aliquots were mixed with 25 μL 15% aqueous TCA and were incubated for 10 min at 4° C. […]
# [4] = tested on: LN18 glioblastoma cells; test: Cell growth experiments, cell counting; assay type: cell-based
# Experimental: (§3) Biological activity of the peptides was first assessed using MCF-7 breast cancer cells that express AdipoR1. Arditi J D, Venihaki M, Karalis K P, Chrousos G P Horm Metab Res 2007, 39(1):9-13. The MCF-7 breast cancer cell line was obtained from ATCC (Manassas, Va.) and routinely grown in DMEM:F12 plus 5% calf serum (Cellgro Mediatech, Manassas, Va.) at 37° C., 5% CO2. For screening experiments, MCF-7 cells were plated in 24-well plates at the concentration of 30,000 cells/well. After 12 h of culture in the growth medium, the cells were synchronized in serum-free medium (SFM) (DMEM:F12 supplemented with […] bovine serum albumin, 1 mM FeSO4 and 2 mM L-glutamine) for 24 h and then shifted back to the full growth medium containing either gAd (Phoenix Secretomics, Burlingame, Calif.) at 50 ng/mL, individual peptides, or no test compounds for 24 h. At conclusion of proliferation assays, the cells were counted under the microscope with trypan-blue exclusion. Each experiment was performed in triplicate and repeated at least three times. ADP 25-β-AlaNH2, ADP 91-β-AlaNH2, ADP 157-β-AlaNH2, ADP 223-β-AlaNH2, ADP 289-β-AlaNH2 and ADP 355-β-AlaNH2 were solubilized at 65° C. for 30 min and were further purified by RP-HPLC and screened together with the individually synthesized adiponectin peptides at the exact concentration of 50 ng/mL.
# (§4) The effects of the selected peptide ADP 355-NH2 on cell proliferation were tested in breast cancer cell lines (MCF-7, MDA-MB-231) and in glioblastoma cells (LN18), all obtained from ATCC and routinely cultured as described previously. Otvos L, Jr., et al. European J Cancer 2011, 47(10):1578-1584. Riolfi M, et al. Brain Pathol 2010, 20(2):481-489. Bartucci M, et al. Cancer Res 2001, 61(18):6747-6754. The peptide was tested at 10 pM-100 μM concentrations under conditions described above under peptide screening.
# [5] = tested on: MDA-MB-231 breast cancer cells; test: Cell growth experiments, cell counting; assay type: cell-based; conditions: MDA-MB-231 cells
# Experimental: as §3, §4
# [6] = tested on: female CBA/J mice; test: In vivo toxicity, bolus ip; conditions: for Kidney weight / Kidney weight relative to total weight (%) / Liver weight / Liver weight relative to total weight (%) / Spleen weight: day 5
# Text: On day 5 the mice were killed by CO2 inhalation and the potential peptide elimination organs, the livers, spleens and kidneys were removed and weighed.
# [7] = Peptide stability in mouse serum; assay type: in vitro ADME; conditions: 25% aqueous mouse serum, calculated from degradation rate in 25% aqueous serum, 37° C., data not shown
# Experimental: as §2
# [8] = tested on: ERK1/2; test: Signaling analysis by Western blot: ERK1/2 phosphorylation; assay type: cell-based
# Experimental: as §1, with “Protein loading was verified by evaluating the expression of either a constitutive enzyme glyceraldehyde-3-phosphate dehydrogenase (GAPDH) using 6C51 mAbs 1:1000 (Santa Cruz Biotechnology, CA, USA) or alpha-actin using the actin I-19 goat polyclonal Ab (Santa Cruz) 1: 200. The following secondary Abs (Santa Cruz) were used 1) donkey anti-goat IgG-HRP; 2) goat anti-mouse IgG-HRP; 3) goat anti-rabbit IgG-HRP, all applied at 1:1000 dilution.” left out
# [9] = tested on: MCF-7 breast cancer cells
# Experimental: The MCF-7 breast cancer cell line was obtained from ATCC (Manassas, Va.) and routinely grown in DMEM:F12 plus 5% calf serum (Cellgro Mediatech, Manassas, Va.) at 37° C., 5% CO2. For screening experiments, MCF-7 cells were plated in 24-well plates at the concentration of 30,000 cells/well. After 12 h of culture in the growth medium, the cells were synchronized in serum-free medium (SFM) (DMEM:F12 supplemented with 0.42 g/mL bovine serum albumin, 1 mM FeSO4 and 2 mM L-glutamine) for 24 h and then shifted back to the full growth medium containing either gAd (Phoenix Secretomics, Burlingame, Calif.) at 50 ng/mL, individual peptides, or no test compounds for 24 h. At conclusion of proliferation assays, the cells were counted under the microscope with trypan-blue exclusion. Each experiment was performed in triplicate and repeated at least three times.
# [10] = tested on: STAT3; test: Signaling analysis by Western blot: STAT3 phosphorylation; assay type: cell-based; conditions: for STAT3 phosphorylation: 10 μM
# Experimental: as §1
# [11] = MDA-MB-231 cells, 10 μM, 0-60 min
# [12] = LN 18 cells, compared with 1 μM
# [13] = four days after ip administration, vs untreated
compound,measurement,setting,value
"CCC[C@H](NC(=O)[C@@H]1CCCN1C(=O)[C@@H](NC(=O)[C@H](N)CC(N)=O)[C@@H](C)CC)C(=O)N[C@@H](CC(C)C)C(=O)N[C@@H](Cc1ccc(O)cc1)C(=O)N[C@H](CO)C(=O)N[C@@H](Cc1ccccc1)C(=O)N[C@@H](C)C(=O)N[C@H](CO)C(N)=O [ADP 355-NH2, D-Asn-Ile-Pro-Nva-Leu-Tyr-D-Ser-Phe-Ala-D-Ser-NH2] (H-[dN]IP[Nva]LY[dS]FA[dS]-NH2)",AMPK modulation,"[1]; LN18 cells, 10 μM, 0-60 min",did not modulate
same,phosphorylation of AMPK,"[1]; MCF-7 cells, 100 nM, at 15 and 30 min",increased
same,AMPK activation,[1]; [11],did not affect
same,total and phosphorylated levels of Akt,"[2]; LN18 cells, 10 μM, at 15-60 min",down-regulated
same,activation of Akt,"[2]; MCF-7 cells, 100 nM, 0-60 min",did not affect
same,Akt activation,[2]; [11],did not affect
same,stability in whole mouse blood,[3],without noticeable degradation
same,cytostatic effect at maximal effective doses compared with gAd at 50 ng/mL,[4]; LN18 cells,greater cytostatic effects
same,effect on normal cell growth,"[4]; LN18 cells, 10 pM-100 μM",restricted normal cell growth in a dose-dependent manner
same,growth inhibition at 10 μM,[4]; [12],further activity increase
same,growth inhibition at 100 μM,[4]; [12],less inhibitory
same,cytostatic effect at maximal effective doses compared with gAd at 50 ng/mL,[5],greater cytostatic effects
same,effect on normal cell growth,[5]; 10 pM-100 μM,restricted normal cell growth in a dose-dependent manner
same,growth inhibition at 10 μM,[5]; compared with 1 μM,further activity increase
same,growth inhibition at 100 μM,[5]; compared with 1 μM,less inhibitory
same,Kidney weight,[6]; 5 mg/kg bolus ip,0.30 g
same,Kidney weight relative to total weight (%),[6]; 5 mg/kg bolus ip,1.6%
same,Liver weight,[6]; 5 mg/kg bolus ip,1.02 g
same,Liver weight relative to total weight (%),[6]; 5 mg/kg bolus ip,5.4%
same,Spleen weight,[6]; 5 mg/kg bolus ip,0.07 g
same,Kidney weight,[6]; 10 mg/kg bolus ip,0.29 g
same,Kidney weight relative to total weight (%),[6]; 10 mg/kg bolus ip,1.6%
same,Liver weight,[6]; 10 mg/kg bolus ip,1.09 g
same,Liver weight relative to total weight (%),[6]; 10 mg/kg bolus ip,5.9%
same,Spleen weight,[6]; 10 mg/kg bolus ip,0.06 g
same,Kidney weight,[6]; 25 mg/kg bolus ip,0.35 g
same,Kidney weight relative to total weight (%),[6]; 25 mg/kg bolus ip,1.7%
same,Liver weight,[6]; 25 mg/kg bolus ip,1.24 g
same,Liver weight relative to total weight (%),[6]; 25 mg/kg bolus ip,5.9%
same,Spleen weight,[6]; 25 mg/kg bolus ip,0.07 g
same,Kidney weight,[6]; 50 mg/kg bolus ip,0.31 g
same,Kidney weight relative to total weight (%),[6]; 50 mg/kg bolus ip,1.7%
same,Liver weight,[6]; 50 mg/kg bolus ip,1.07 g
same,Liver weight relative to total weight (%),[6]; 50 mg/kg bolus ip,6.2%
same,Spleen weight,[6]; 50 mg/kg bolus ip,0.07 g
same,spleen size compared with untreated control mice,[6]; four days after ip administration,identical in size
same,increase of kidney size relative to total body weight,[6]; [13],2%
same,increase of liver size relative to total body weight,[6]; [13],8%
same,"signs of systemic toxicity (tremor, head tilt, reduced activity, squinting)","[6]; up to 50 mg/kg ip bolus, observed for 4 days",no signs of systemic toxicity
same,half-life at 150 μg/mL,[7],1.25 h
same,ERK1/2 phosphorylation,"[8]; MCF-7 cells, 100 nM, at 60 min",decreased
same,ERK1/2 pathway,"[8]; MDA-MB-231 cells, 10 μM, at 30 and 60 min",significantly inhibited
same,concentration up to which the growth inhibitory activity was maintained,[9]; MCF-7 cells,up to 10 μM
same,cytostatic effect at maximal effective doses compared with gAd at 50 ng/mL,[9]; MCF-7 cells,greater cytostatic effects
same,peptide concentration at which the best growth inhibition was achieved,[9]; MCF-7 cells,100 nM
same,effect on normal cell growth,"[9]; MCF-7 cells, 10 pM-100 μM",restricted normal cell growth in a dose-dependent manner
same,growth inhibition at 10 pM-10 nM,"[9]; MCF-7 cells, compared with 100 nM",less effective
same,STAT3 phosphorylation,"[10]; LN18 cells, at 15-60 min",decreased
same,phosphorylation of STAT3,"[10]; MCF-7 cells, 100 nM, at 15-60 min",increased
same,STAT3 phosphorylation,"[10]; MDA-MB-231 cells, at 15 and 30 min",transiently increased
"CC[C@H](C)[C@H](NC(=O)[C@@H](N)CC(N)=O)C(=O)N1CCC[C@H]1C(=O)NCC(=O)N[C@@H](CC(C)C)C(=O)N[C@@H](Cc1ccc(O)cc1)C(=O)N[C@@H](Cc1ccc(O)cc1)C(=O)N[C@@H](Cc1ccccc1)C(=O)N[C@@H](C)C(=O)N[C@@H](Cc1ccc(O)cc1)C(=O)NCCC(N)=O [ADP 25-β-AlaNH2, Asn-Ile-Pro-Gly-Leu-Tyr-Tyr-Phe-Ala-Tyr-β-AlaNH2] (H-NIPGLYYFAY[βAla]-NH2; N-terminus assumed)",biological activity in cancer cell growth inhibition assays,[9]; 50 ng/mL,fully active
same,Cytostatic Activity of Original Peptide vs. gAd (% Increase),"[9]; MCF-7 cells, 50 ng/mL, relative to 50 ng/mL gAd (baseline)",11%
